In general, EC50 refers to the concentration giving half of the maximal effect.

Test [1] has as its target T1, recombinant human pancreatic GLK (Homo sapiens, UniProt P35557).
T1 construct: 6-His (N); made in house; host or cells: E. coli BL21
T1 sequence (P35557 1-465): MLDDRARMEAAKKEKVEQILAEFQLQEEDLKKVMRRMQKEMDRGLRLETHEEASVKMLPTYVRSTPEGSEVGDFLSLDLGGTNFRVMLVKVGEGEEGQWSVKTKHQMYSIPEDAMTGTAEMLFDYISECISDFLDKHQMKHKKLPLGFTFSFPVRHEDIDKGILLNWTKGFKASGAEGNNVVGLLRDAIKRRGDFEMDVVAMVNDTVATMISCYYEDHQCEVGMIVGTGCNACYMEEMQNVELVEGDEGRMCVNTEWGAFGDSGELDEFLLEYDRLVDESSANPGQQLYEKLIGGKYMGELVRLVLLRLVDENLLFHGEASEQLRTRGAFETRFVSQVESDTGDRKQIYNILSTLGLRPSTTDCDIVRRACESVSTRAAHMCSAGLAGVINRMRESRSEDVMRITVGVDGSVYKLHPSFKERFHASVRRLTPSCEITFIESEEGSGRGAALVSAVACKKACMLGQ
Nature of the test: GKH4 variant of GLK enzymatic activity assay (automated end-point assay). The settings on record: activation of GLK; 10 nmol/l GLK; end-point at 10 minutes; no GLKRP. The test is classed as biochemical. The method, then: (§1) Enzymatic activity of recombinant human pancreatic GLK may be measured by incubating GLK, ATP and glucose. The rate of product formation may be determined by coupling the assay to a G-6-P dehydrogenase, NADP/NADPH system and measuring the linear increase with time of optical density at 340 nm (Brocklehurst et al (Diabetes 2004, 53, 535-541). Activation of GLK by compounds can be assessed using this assay in the presence or absence of GLKRP as described in Brocklehurst et al (Diabetes 2004, 53, 535-541).
(§2) One or both of two variants of this assay, GKH1 and GKH4, were used to test the compounds of the invention. The GKH1 assay is a manual, bench-top rate assay using 60 nmol/l of recombinant human pancreatic GLK. The GLK activity rate is measured over a 5 minute window using a Multiskan Ascent spectrophotometer. The GKH4 assay is an automated end-point assay using 10 nmol/l of recombinant human pancreatic GLK. The GLK activity is measured at 10 minutes after the initiation of the assay on a Perkin Elmer Envision spectrophotometer.

The target of test [2] is T1, recombinant human pancreatic GLK. The experiment in a line: GKH1 variant of GLK enzymatic activity assay (manual bench-top rate assay). The test is classed as biochemical. The settings on record: activation of GLK; 60 nmol/l GLK; rate over 5 minute window; no GLKRP. The method, then:
as §1, §2

As for `Cc1csc(NC(=O)c2cc(Oc3cnc(C(=O)N4CCC4)cn3)cc(O[C@@H]3CCN(C)C3=O)c2)n1` [Example 4, 3-[5-(Azetidine-1-carbonyl)pyrazin-2-yl]oxy-5-[(3R)-1-methyl-2-oxo-pyrrolidin-3-yl]oxy-N-(4-methyl1,3-thiazol-2-yl)benzamide], in test [1], the EC50 is 18300 nM. Same read-out and setting: to `Cc1cnc(NC(=O)c2cc(Oc3ccc(C(=O)N4CCC4)nc3)cc(O[C@H]3CCN(C4CC4)C3=O)c2)cn1` [Example 19, 3-[6-(Azetidine-1-carbonyl)pyridin-3-yl]oxy-5-[(3S)-1-cyclopropyl-2-oxo-pyrrolidin-3-yl]oxy-N-(5-methylpyrazin-2-yl)benzamide] belongs 590 nM; to `CCN1CCC(Oc2cc(Oc3ccc(C(=O)N4CCC4)nc3)cc(C(=O)Nc3cnc(C)cn3)c2)C1=O` (racemic) [Example 10, 3-[6-(Azetidine-1-carbonyl)pyridin-3-yl]oxy-5-(1-ethyl-2-oxo-pyrrolidin-3-yl)oxy-N-(5-methylpyrazin-2-yl)benzamide], 260 nM. Still for that read-out and setting: to `Cc1cnc(NC(=O)c2cc(Oc3ccc(C(=O)N(C)C)cc3Cl)cc(O[C@H]3CCN(C)C3=O)c2)cn1` [Example 26, 3-[2-Chloro-4-(dimethylcarbamoyl)phenoxy]-5-[(3S)-1-methyl-2-oxo-pyrrolidin-3-yl]oxy-N-(5-methylpyrazin-2-yl)benzamide] belongs 390 nM. The same measure, in the same setting: the same measure for `Cc1cnc(NC(=O)c2cc(Oc3ccc4c(c3)OCCN(C)C4=O)cc(O[C@H]3CCN(C)C3=O)c2)cn1` [Example 16, 3-[(5-Methyl-6-oxo-2-oxa-5-azabicyclo[5.4.0]undeca-8,10,12-trien-10-yl)oxy]-5-[(3S)-1-methyl-2-oxo-pyrrolidin-3-yl]oxy-N-(5-methylpyrazin-2-yl)benzamide]: 310 nM. Take `Cc1csc(NC(=O)c2cc(Oc3cnc(C(=O)N4CCC4)cn3)cc(O[C@H]3CCN(C)C3=O)c2)n1` [Example 3, 3-[5-(Azetidine-1-carbonyl)pyrazin-2-yl]oxy-5-[(3S)-1-methyl-2-oxo-pyrrolidin-3-yl]oxy-N-(4-methyl1,3-thiazol-2-yl)benzamide]: in test [1], the EC50 came to 290 nM. Still for that read-out and setting: the same measure for `Cc1cnc(NC(=O)c2cc(Oc3ccc4c(c3Cl)OCCN(C)C4=O)cc(O[C@H]3CCN(C)C3=O)c2)cn1` [Example 14, 3-[(11-Chloro-5-methyl-6-oxo-2-oxa-5-azabicyclo[5.4.0]undeca-8,10,12-trien-10-yl)oxy]-5-[(3S)-1-methyl-2-oxo-pyrrolidin-3-yl]oxy-N-(5-methylpyrazin-2-yl)benzamide]: 80 nM; for `Cc1cnc(NC(=O)c2cc(Oc3ccc4c(c3)OCCNS4(=O)=O)cc(O[C@H]3CCN(C)C3=O)c2)cn1` [Example 27, 3-[(6,6-dioxo-2-oxa-6-λ^6-thia-5-azabicyclo[5.4.0]undeca-8,10,12-trien-10-yl)oxy]-5-[(3S)-1-methyl-2-oxo-pyrrolidin-3-yl]oxy-N-(5-methylpyrazin-2-yl)benzamide]: 660 nM. Turning to `Cc1cnc(NC(=O)c2cc(Oc3ccc(S(C)(=O)=O)cc3)cc(O[C@H]3CCN(C)C3=O)c2)cn1` [Example 7, 3-[(3S)-1-Methyl-2-oxo-pyrrolidin-3-yl]oxy-N-(5-methylpyrazin-2-yl)-5-(4-methylsulfonylphenoxy)benzamide], in test [1], the EC50 is 570 nM.

In the case of `Cc1cnc(NC(=O)c2cc(Oc3ccc(S(C)(=O)=O)nc3)cc(O[C@H]3CCN(C)C3=O)c2)cn1` [Example 28, 3-[(3S)-1-methyl-2-oxo-pyrrolidin-3-yl]oxy-N-(5-methylpyrazin-2-yl)-5-(6-methylsulfonylpyridin-3-yl)oxy-benzamide], the 50% effective concentration (EC50) in test [1] was 570 nM. Still for that read-out and setting: to `CN1COc2cc(Oc3cc(O[C@H]4CCN(C)C4=O)cc(C(=O)Nc4cc[nH]n4)c3)ccc2C1=O` [Example 30, 3-[(9-methyl-10-oxo-7-oxa-9-azabicyclo[4.4.0]deca-2,4,11-trien-4-yl)oxy]-5-[(3S)-1-methyl-2-oxo-pyrrolidin-3-yl]oxy-N-(1H-pyrazol-3-yl)benzamide] belongs 60 nM; to `Cc1cnc(NC(=O)c2cc(Oc3ccc(C(=O)N(C)C)nc3)cc(O[C@H]3CCN(C)C3=O)c2)cn1` [Example 29, N,N-dimethyl-5-[3-[(3S)-1-methyl-2-oxo-pyrrolidin-3-yl]oxy-5-[(5-methylpyrazin-2-yl)carbamoyl]phenoxy]pyridine-2-carboxamide], 100 nM. Consider `CN1CC[C@H](Oc2cc(Oc3ccc(C(=O)N4CCC4)cc3)cc(C(=O)Nc3cc[nH]n3)c2)C1=O` [Example 5, 3-[4-(Azetidine-1-carbonyl)phenoxy]-5-[(3S)-1-methyl-2-oxo-pyrrolidin-3-yl]oxy-N-(1H-pyrazol-3-yl)benzamide], for which, in test [1], the EC50 worked out at 150 nM. On the same count and under the same terms, to `Cc1cnc(NC(=O)c2cc(Oc3ccc(C(=O)N4CCC4)nc3)cc(OC3CCN(C4CCC4)C3=O)c2)cn1` (racemic) [Example 17, 3-[6-(Azetidine-1-carbonyl)pyridin-3-yl]oxy-5-(1-cyclobutyl-2-oxo-pyrrolidin-3-yl)oxy-N-(5-methylpyrazin-2-yl)benzamide] belongs 600 nM; to `Cc1nsc(NC(=O)c2cc(Oc3cnc(C(=O)N(C)C)cn3)cc(O[C@H]3CCN(C)C3=O)c2)n1` [Example 31, N,N-dimethyl-5-[3-[(3S)-1-methyl-2-oxo-pyrrolidin-3-yl]oxy-5-[(3-methyl-1,2,4-thiadiazol-5-yl)carbamoyl]phenoxy]pyrazine-2-carboxamide], 1080 nM. Consider `Cc1cnc(NC(=O)c2cc(Oc3ccc(C(=O)N4CCC4)nc3)cc(O[C@@H]3CCN(C)C3=O)c2)cn1` [Example 2, 3-[6-(Azetidine-1-carbonyl)pyridin-3-yl]oxy-5-[(3R)-1-methyl-2-oxo-pyrrolidin-3-yl]oxy-N-(5-methylpyrazin-2-yl)benzamide], for which, in test [2], the EC50 amounted to 3930 nM. On to `Cc1cnc(NC(=O)c2cc(Oc3ccc4c(c3)OCCCS4(=O)=O)cc(O[C@H]3CCN(C)C3=O)c2)cn1` [Example 9, 3-[(2,2-Dioxo-6-oxa-2-λ^6-thiabicyclo[5.4.0]undeca-7,9,11-trien-9-yl)oxy]-5-[(3S)-1-methyl-2-oxo-pyrrolidin-3-yl]oxy-N-(5-methylpyrazin-2-yl)benzamide], for which the EC50 in test [1] was 120 nM. Same read-out and setting: the same measure for `Cc1cnc(NC(=O)c2cc(Oc3ccc(C(=O)N4CCC4)cc3)cc(O[C@H]3CCN(C)C3=O)c2)cn1` [Example 8, 3-[4-(Azetidine-1-carbonyl)phenoxy]-5-[(3S)-1-methyl-2-oxo-pyrrolidin-3-yl]oxy-N-(5-methylpyrazin-2-yl)benzamide]: 190 nM; for `Cc1csc(NC(=O)c2cc(Oc3cnc(C(=O)N(C)C)cn3)cc(O[C@H]3CCN(C)C3=O)c2)n1` [Example 32, N,N-Dimethyl-5-[3-[(3S)-1-methyl-2-oxo-pyrrolidin-3-yl]oxy-5-[(4-methyl-1,3-thiazol-2-yl)carbamoyl]phenoxy]pyrazine-2-carboxamide]: 60 nM. The same measure, in the same setting: to `Cc1cnc(NC(=O)c2cc(Oc3ncc(C(=O)N4CCC4)cc3Cl)cc(O[C@H]3CCN(C)C3=O)c2)cn1` [Example 6, 3-[5-(Azetidine-1-carbonyl)-3-chloro-pyridin-2-yl]oxy-5-[(3S)-1-methyl-2-oxo-pyrrolidin-3-yl]oxy-N-(5-methylpyrazin-2-yl)benzamide] belongs 190 nM.

(Values after patent publication US7902200B2, “Chemical compounds” (AstraZeneca AB, priority 2006, dated 2011).)
